Experimental data: publication PMC8100298, “Histone deacetylase inhibitor resminostat in combination with sorafenib counteracts platelet-mediated pro-tumoral effects in hepatocellular carcinoma” (Scientific Reports, 2021)
Where two headings read alike, the source gives them in different places.

Key:
Experiment in all cases: Efficacy screening assay
Assay type in all cases: cell-based
LOVO = details: 72 h, colon
Method: (§1) The experiment was performed by Oncolead GmbH & Co. KG (Karlsfeld , Germany), based on a standardized screening procedure . Cell lines were purchased directly from the ATCC, NCI and DSMZ cell line c ollections. Cells used for the study had undergone less than 20 passages. To ensure the absence of potential contamination and wrong assignment, all cell lines were tested using a whole genome assay (Agilent, USA). All cell lines were grown as recommended by the suppliers and with addition of 100 U/mL penicillin G and 100 µg/mL; streptomycin. Cell growth and treatments were performed in Nunclon D 96 -well plates (NUNC, Germany). The optimal seeding density for each cell line was determined to ensure exponential growth for the duration of the experiment. All cells growing without anti-cancer agents were sub-conﬂuent by the end of the treatment, as determined by visual inspection.
(§2) After an initial 24 h pre-growth period, the compounds were added. The vehicle concentration […]
(§3) was 0.1% DMSO. After incubation at 37°C for 72 h, the culture medium was aspirated, and the cells were precipitated by the addition of 10% trichloroacetic acid (Sigma-Aldrich, Missouri, US). After overnight incubation at 4°C, the plates were washed three times with deionized water. The precipitates were then stained with SRB (0.4% wt/v sulforhodamine B solution in 1% acetic acid, Sigma-Aldrich, Missouri, US). Afterwards, the plates were washed six times with 1% acetic acid to remove unbound stain. After drying the plates at room temperature, the bound SRB was solubilized with 10 mM Tris base and the optical density was measured at 520 nm using a Victor2 plate reader (Perkin Elmer, Germany). Blank OD values were subtracted from mean OD values for each concentration. The nonlinear curve ﬁtting and EC50 calculations were per formed using XLﬁt and algorithm “205” (ID Business […]
(§4) Multiplicity adjusted p-values with 95% confidence interval was applied. For the invasion assays in Figure 4, one-way ANOVA with multiple comparison testing (Tukey) was performed. Multiplicity adjusted p-values with 95% confidence interval was applied. The adjusted p-values comparing vehicle control without vs. with platelets and compound

MDAMB436 = details: MDAMB436, breast
Method: as §1, §2, §3, §4

MCF7 = details: MCF7, breast
Method: as §1, §2, §3, §4

MDAMB231 = details: MDAMB231, breast
Method: as §1, §2, §3, §4

BT20 = details: BT20, breast
Method: as §1, §2, §3
(§5) one-way ANOVA and multiple comparison (Dunnett) was performed for compound treatments compared to vehicle control. The adjusted p-values with 95% confidence interval were reported as significant. For comparison of EC50 values in Figure 1F, one-way ANOVA with multiple comparison testing (Tukey) was performed. Multiplicity adjusted p -values for the EC50 with sorafenib versus resminostat for each cell line and comparison between cell lines for sorafenib are presented (95% confidence interval for significance testing). For comparison of EC50 data in Figure 2B, one-way ANOVA with multiple comparison testing (Tukey) was performed. Multiplicity adjusted p-values with 95% confidence interval was applied. For the invasion assays in Figure 4, one-way ANOVA with multiple comparison testing (Tukey) was performed. Multiplicity adjusted p-values with 95% confidence interval was applied. The adjusted p-values comparing vehicle control without vs. with platelets and compound

BXPC3 = details: BXPC3, pancreas
Method: as §1, §2, §3, §5

A431 = details: A431, skin
Method: as §1, §2, §3, §5

CAKI1 = details: CAKI1, kidney
Method: as §1, §2, §3, §5

A549 = details: A549, lung
Method: as §1, §2, §3, §5

786O = details: kidney
Method: as §1, §2, §3, §5

ASPC1 = details: Homo sapiens, ASPC1, pancreas, 72 h
Method: as §1, §2, §3, §5

A204 = details: A204, muscle
Method: as §1, §2, §3, §5

C33A = details: Homo sapiens, C-33-A, cervix, 72 h
Method: as §1, §2, §3, §5

22RV1 = details: 22RV1, prostate
Method: as §1, §2, §3, §5

CACO2 = details: CACO2, colon
Method: as §1, §2, §3, §5

A2780 = details: A2780, ovary
Method: as §1, §2, §3, §5

[1] = log of EC50, negative, read-out: log(EC50) (converted)

CN(C)Cc1ccc(S(=O)(=O)n2ccc(/C=C/C(=O)NO)c2)cc1 [resminostat, Resminostat]
EC50 (LOVO; Homo sapiens, LoVo, log of EC50, negative, read-out: log(EC50) (converted)): 1050 nM | EC50 (LOVO; Homo sapiens, LoVo, read-out: EC50): 1050 nM | EC50 (LOVO; read-out: EC50): 1050 nM | EC50 (MDAMB436; Homo sapiens, MDA-MB-436, 72 h, log of EC50, negative, read-out: log(EC50) (converted)): 7080 nM | EC50 (MDAMB436; Homo sapiens, MDA-MB-436, 72 h, read-out: EC50): 7150 nM | EC50 (MDAMB436; 72 h, read-out: EC50): 7150 nM | EC50 (MCF7; Homo sapiens, MCF7, 72 h, log of EC50, negative, read-out: log(EC50) (converted)): 1700 nM | EC50 (MCF7; Homo sapiens, MCF7, 72 h, read-out: EC50): 1690 nM | EC50 (MCF7; 72 h, read-out: EC50): 1690 nM | EC50 (MDAMB231; Homo sapiens, MDA-MB-231, 72 h, log of EC50, negative, read-out: log(EC50) (converted)): 2340 nM | EC50 (MDAMB231; Homo sapiens, MDA-MB-231, 72 h, read-out: EC50): 2360 nM | EC50 (MDAMB231; 72 h, read-out: EC50): 2360 nM | EC50 (BT20; 72 h, read-out: EC50): 1320 nM | EC50 (BT20; Homo sapiens, BT-20, 72 h, log of EC50, negative, read-out: log(EC50) (converted)): 1320 nM | EC50 (BT20; Homo sapiens, BT-20, 72 h, read-out: EC50): 1320 nM | EC50 (BXPC3; 72 h, read-out: EC50): 4230 nM | EC50 (BXPC3; Homo sapiens, BXPC-3, 72 h, log of EC50, negative, read-out: log(EC50) (converted)): 4270 nM | EC50 (BXPC3; Homo sapiens, BXPC-3, 72 h, read-out: EC50): 4220 nM | EC50 (A431; 72 h, read-out: EC50): 1490 nM | EC50 (A431; Homo sapiens, A-431, 72 h, log of EC50, negative, read-out: log(EC50) (converted)): 1480 nM | EC50 (A431; Homo sapiens, A-431, 72 h, read-out: EC50): 1490 nM | EC50 (CAKI1; 72 h, read-out: EC50): 3270 nM | EC50 (CAKI1; Homo sapiens, CAKI-1, 72 h, log of EC50, negative, read-out: log(EC50) (converted)): 3310 nM | EC50 (CAKI1; Homo sapiens, CAKI-1, 72 h, read-out: EC50): 3270 nM | EC50 (A549; 72 h, read-out: EC50): 3500 nM | EC50 (A549; Homo sapiens, A549, 72 h, log of EC50, negative, read-out: log(EC50) (converted)): 3470 nM | EC50 (A549; Homo sapiens, A549, 72 h, read-out: EC50): 3500 nM | EC50 (786O; Homo sapiens, 786-0, 72 h, log of EC50, negative, read-out: log(EC50) (converted)): 2570 nM | EC50 (786O; Homo sapiens, 786-0, 72 h, read-out: EC50): 2540 nM | EC50 (786O; 72 h, read-out: EC50): 2540 nM | EC50 (ASPC1; [1]): 1660 nM | EC50 (ASPC1; read-out: EC50): 1650 nM | EC50 (A204; 72 h, read-out: EC50): 910 nM | EC50 (A204; Homo sapiens, A204, 72 h, log of EC50, negative, read-out: log(EC50) (converted)): 912 nM | EC50 (A204; Homo sapiens, A204, 72 h, read-out: EC50): 906 nM | EC50 (C33A; [1]): 1550 nM | EC50 (C33A; read-out: EC50): 1550 nM | EC50 (22RV1; 72 h, read-out: EC50): 1450 nM | EC50 (22RV1; Homo sapiens, 22Rv1, 72 h, log of EC50, negative, read-out: log(EC50) (converted)): 1450 nM | EC50 (22RV1; Homo sapiens, 22Rv1, 72 h, read-out: EC50): 1450 nM | EC50 (CACO2; 72 h, read-out: EC50): 1780 nM | EC50 (CACO2; Homo sapiens, Caco-2, 72 h, log of EC50, negative, read-out: log(EC50) (converted)): 1780 nM | EC50 (CACO2; Homo sapiens, Caco-2, 72 h, read-out: EC50): 1780 nM | EC50 (A2780; 72 h, read-out: EC50): 890 nM | EC50 (A2780; Homo sapiens, A2780, 72 h, log of EC50, negative, read-out: log(EC50) (converted)): 891 nM | EC50 (A2780; Homo sapiens, A2780, 72 h, read-out: EC50): 890 nM
